Like-named read-outs stand apart in the source and are kept apart here. Numbered stars: 1 amine (or outer) side, 2 acyl side, 3 side chain; on linkers, the order of the positions; unused ones are H or OH. Square brackets hold non-standard residues; d marks the D form. Side chains are listed from the residue outwards. Peptide text beside a SMILES is read from it. * marks the point of attachment. ξ: configuration not given here. C20 diacid = O=C(O)CCCCCCCCCCCCCCCCCCC(=O)*; αMePhe(2-F) = C[C@](N)(Cc1ccccc1F)C(=O)O; γGlu = O=C(O)[C@H](CCC(=O)[*:2])N[*:1]; αMeY = C[C@](N)(Cc1ccc(O)cc1)C(=O)O; 4Pal = N[C@@H](Cc1ccncc1)C(=O)O; αMeL = CC(C)C[C@](C)(N)C(=O)O; Orn = NCCC[C@H](N)C(=O)O; ξIva = CCC(C)(N)C(=O)O; AEEA = NCCOCCOCC(=O)O; Aib = CC(C)(N)C(=O)O
Legend:
[1] = Pharmacokinetics in male diet-induced obese (DIO) mice; type: in vivo; conditions: mouse, single 200 nmol/kg SQ dose, plasma; for half-life: read-out: t½ (converted)
Protocol: Methods: Male DIO mice are administered a single SQ dose of 200 nmol/kg (0.98 mg/kg) of Example compounds in 40 mM Tris-HCL pH8 buffer with 0.02% PS80 at a volume of 10 mL/kg. […] Plasma concentration of Example compounds are determined by a qualified Liquid Chromatography Mass Spectrometry (LC/MS) method at Q Squared Solutions BioSciences LLC (Ithaca, NY). The Example compounds and an internal standard are extracted from 100% mouse plasma using protein precipitation followed by solid phase extraction. The intact mass of the Example compounds, which includes peptide plus acyl chain, are detected by a Q-Exactive™ Orbitrap® mass spectrometer.

hGLP-1R = target: T1, hGLP-1R (Homo sapiens, UniProt P43220); test: Functional cAMP assay in HEK-293 cells expressing hGLP-1R; type: cell-based; conditions: percent of maximal response to GLP-1(7-36)NH2
T1 construct: expressed in transfected cells; host or cells: HEK-293 clonal cell line
Protocol: (§1) Experiments also are performed under identical assay conditions with the addition of 1.0% fatty acid free, globulin free human serum albumin (Sigma Cat #A3782).
(§2) After a 30-min incubation at 37° C., the resulting increase in intracellular cAMP is quantitatively determined using a CisBio cAMP Dynamic 2 HTRF Assay Kit (62AM4PEJ). Briefly, cAMP levels within the cell are detected by adding the cAMP-d2 conjugate in cell lysis buffer (10 μL) followed by the antibody anti-cAMP-Eu^3+-Cryptate, also in cell lysis buffer (10 μL). The resulting competitive assay is incubated for at least 60 min at room temperature, and then is detected using a PerkinElmer Envision® instrument with excitation at 320 nm and emission at 665 nm and 620 nm. Envision units (emission at 665 nm/620 nm*10,000) are inversely proportional to the amount of cAMP present and are converted to nM cAMP per well using a cAMP standard curve. […] A relative EC50 value and percent top (Emax) are derived by non-linear regression analysis using the percent maximal response vs. the concentration of peptide added, fitted to a four-parameter logistic equation.

hGIPR = target: T2, hGIPR (Homo sapiens, UniProt P48546); test: Functional cAMP assay in HEK-293 cells expressing hGIPR; type: cell-based; conditions: percent of maximal response to GIP(1-42)NH2
T2 construct: expressed in transfected cells; host or cells: HEK-293 clonal cell line
T2 sequence (P48546 22-466): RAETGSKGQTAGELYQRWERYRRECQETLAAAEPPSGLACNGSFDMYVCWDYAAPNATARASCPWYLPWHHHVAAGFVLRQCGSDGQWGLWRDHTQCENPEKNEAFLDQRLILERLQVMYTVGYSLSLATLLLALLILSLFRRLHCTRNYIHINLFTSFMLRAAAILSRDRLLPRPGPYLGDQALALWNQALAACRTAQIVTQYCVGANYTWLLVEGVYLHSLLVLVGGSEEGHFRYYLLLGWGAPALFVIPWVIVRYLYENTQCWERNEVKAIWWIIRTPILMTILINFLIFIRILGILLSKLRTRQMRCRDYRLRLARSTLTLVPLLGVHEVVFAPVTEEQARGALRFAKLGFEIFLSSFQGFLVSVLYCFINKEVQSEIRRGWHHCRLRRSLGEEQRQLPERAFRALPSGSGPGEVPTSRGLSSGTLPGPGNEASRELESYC
Protocol: as §1, §2

T1 sequence (P43220 24-463): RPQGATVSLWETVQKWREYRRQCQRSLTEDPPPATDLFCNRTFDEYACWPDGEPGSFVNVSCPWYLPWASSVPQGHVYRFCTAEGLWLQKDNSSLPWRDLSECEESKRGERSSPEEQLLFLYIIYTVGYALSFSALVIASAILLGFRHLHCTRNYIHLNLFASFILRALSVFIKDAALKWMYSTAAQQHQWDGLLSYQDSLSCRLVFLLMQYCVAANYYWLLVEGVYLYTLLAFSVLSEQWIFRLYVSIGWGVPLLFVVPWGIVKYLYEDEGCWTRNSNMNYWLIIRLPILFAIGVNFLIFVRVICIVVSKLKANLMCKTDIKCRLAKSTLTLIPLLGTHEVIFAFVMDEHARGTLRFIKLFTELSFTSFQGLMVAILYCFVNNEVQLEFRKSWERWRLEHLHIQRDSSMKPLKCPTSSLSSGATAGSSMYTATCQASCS

`CC[C@H](C)[C@H](NC(=O)[C@H](Cc1ccccc1)NC(=O)[C@H](C)NC(=O)[C@H](Cc1ccncc1)NC(=O)[C@H](CCC(N)=O)NC(=O)[C@H](C)NC(=O)[C@H](CCCCNC(=O)COCCOCCNC(=O)CC[C@H](NC(=O)CCCCCCCCCCCCCCCCCCC(=O)O)C(=O)O)NC(=O)[C@H](CCCN)NC(=O)[C@H](CC(=O)O)NC(=O)[C@H](CC(C)C)NC(=O)[C@H](CC(C)C)NC(=O)[C@@H](NC(=O)[C@H](CO)NC(=O)[C@H](Cc1ccc(O)cc1)NC(=O)[C@H](CC(=O)O)NC(=O)[C@H](CO)NC(=O)[C@@H](NC(=O)[C@](C)(Cc1ccccc1F)NC(=O)[C@@H](NC(=O)CNC(=O)[C@H](CCC(N)=O)NC(=O)C(C)(C)NC(=O)[C@@H](N)Cc1ccc(O)cc1)[C@@H](C)O)[C@@H](C)O)[C@@H](C)CC)C(=O)N[C@@H](CCC(=O)O)C(=O)N[C@@H](Cc1ccc(O)cc1)C(=O)N[C@@H](CC(C)C)C(=O)N[C@@H](CC(C)C)C(=O)N[C@@H](CCC(=O)O)C(=O)NCC(=O)NCC(=O)N1CCC[C@H]1C(=O)N[C@@H](CO)C(=O)N[C@@H](CO)C(=O)NCC(=O)N[C@@H](CCC(=O)O)C(=O)N1CCC[C@H]1C(=O)N1CCC[C@H]1C(=O)N1CCC[C@H]1C(=O)N[C@@H](CCC(=O)O)C(N)=O` [Example 1] (H-Y[Aib]QGT[αMePhe(2-F)]TSDYSILLD[Orn]K([AEEA-γGlu-C20 diacid])AQ[4Pal]AFIEYLLEGGPSSGEPPPE-NH2) gave an AUC(0-inf) ([1]; in vivo) of 55.6 µM·h, a CL/F ([1]; in vivo) of 3.6 mL/h/kg and a Cmax ([1]; in vivo) of 817 nM. For the same compound, the Tmax ([1]; in vivo) was 12 h, the half-life ([1]; in vivo) was 38 h and the Emax (hGLP-1R; HEK293, read-out: hGLP-1R Emax, 0.1% bovine casein and 1.0% human serum albumin) was 102 ± 4%. The Emax (hGLP-1R; HEK293, read-out: hGLP-1R Emax, 0.1% bovine casein) was 106 ± 4%, the Emax (hGIPR; HEK293, read-out: hGIPR Emax, 0.1% bovine casein and 1.0% human serum albumin) was 100 ± 3% and the Emax (hGIPR; HEK293, read-out: hGIPR Emax, 0.1% bovine casein) was 102 ± 2%.

Work on `CC[C@H](C)[C@H](NC(=O)[C@H](Cc1ccccc1)NC(=O)[C@H](C)NC(=O)C(C)(CC)NC(=O)[C@H](CCC(N)=O)NC(=O)[C@H](C)NC(=O)[C@H](CCCCNC(=O)COCCOCCNC(=O)CC[C@H](NC(=O)CCCCCCCCCCCCCCCCCCC(=O)O)C(=O)O)NC(=O)[C@H](CCCN)NC(=O)[C@H](CC(=O)O)NC(=O)[C@H](CC(C)C)NC(=O)[C@](C)(CC(C)C)NC(=O)[C@@H](NC(=O)[C@H](CO)NC(=O)[C@H](Cc1ccc(O)cc1)NC(=O)[C@H](CC(=O)O)NC(=O)[C@H](CO)NC(=O)[C@@H](NC(=O)[C@](C)(Cc1ccccc1F)NC(=O)[C@@H](NC(=O)CNC(=O)[C@H](CCC(N)=O)NC(=O)C(C)(C)NC(=O)[C@@H](N)Cc1ccc(O)cc1)[C@@H](C)O)[C@@H](C)O)[C@@H](C)CC)C(=O)N[C@@H](CCC(=O)O)C(=O)N[C@@](C)(Cc1ccc(O)cc1)C(=O)N[C@@H](CC(C)C)C(=O)N[C@@H](CC(C)C)C(=O)N[C@@H](CCC(=O)O)C(=O)NCC(=O)NCC(=O)N1CCC[C@H]1C(=O)N[C@@H](CO)C(=O)N[C@@H](CO)C(=O)NCC(=O)N[C@@H](CCC(=O)O)C(=O)N1CCC[C@H]1C(=O)N1CCC[C@H]1C(=O)N1CCC[C@H]1C(=O)N[C@@H](CO)C(N)=O` (stereo partly shown) [Example 2] (H-Y[Aib]QGT[αMePhe(2-F)]TSDYSI[αMeL]LD[Orn]K([AEEA-γGlu-C20 diacid])AQ[ξIva]AFIE[αMeY]LLEGGPSSGEPPPS-NH2; N-terminus assumed) yielded an AUC(0-inf) ([1]; subcutaneous) of 42.5 µM·h, a CL/F ([1]; subcutaneous) of 4.7 mL/h/kg and a Cmax ([1]; subcutaneous) of 1240 nM. For the same compound, the Tmax ([1]; subcutaneous) was 12 h, the half-life ([1]; subcutaneous) was 18 h and the Emax (hGIPR; HEK293, 0.1% bovine casein and 1.0% human serum albumin, read-out: hGIPR Emax) was 99 ± 2%. For the same compound, the Emax (hGIPR; HEK293, 0.1% bovine casein, read-out: hGIPR Emax) was 101 ± 2%.
